pKi: −log10 of the molar value. Where two headings read alike, the source gives them in different places.
Key:
[1] = target: Recombinant Human Poly(ADP-Ribose) Polymerase (PARP), PARP-1 (Homo sapiens (Human), UniProt P09874); conditions: read-out: PARP-1 (Ki)
Protocol: Nicotinamide[2,5′,8-3H]adenine dinucleotide and strepavidin SPA beads were purchased from Amersham Biosiences. […] NAD^+, histone, aminobenzamide, 3-amino benzamide and Calf Thymus DNA (dcDNA) were purchased from Sigma. Stem loop oligonucleotide containing MCAT sequence was obtained from Qiagen. The oligos were dissolved to 1 mM in annealing buffer containing 10 mM Tris HCl pH 7.5, 1 mM EDTA, and 50 mM NaCl, incubated for 5 minutes at 95° C., and annealed at 45° C. for 45 minutes. […] Biotinylated histone H1 was prepared by treating the protein with Sulfo-NHS-LC-Biotin from Pierce. The biotinylation reaction was conducted by slowly and intermittently adding 3 equivalents of 10 mM Sulfo-NHS-LC-Biotin to 100 μM Histone H1 in phosphate-buffered saline, pH 7.5, at 4° C. with gentle vortexing over 1 minute followed by subsequent 4° C. incubation for 1 hour. Streptavidin coated (FlashPlate Plus) microplates were purchased from Perkin Elmer.
PARP1 assay was conducted in PARP assay buffer containing 50 mM Tris pH 8.0, 1 mM DTT, 4 mM MgCl2. […] Auto reactions utilizing SPA bead-based detection were carried out in 100 μL volumes in white 96 well plates.

PARP in C41 cells = PARP in C41 cells (Homo sapiens (Human), UniProt P09874)
[2] = Table 3, H analogs versus para-F analogs
[3] = Table 3, C41 cells, ratio to comparator EC50
[4] = Table 2, A2 is C1-alkyl versus no A2 (bond)
[5] = Table 1, text calls the values EC50s

Sequence of PARP in C41 cells (P09874 whole entry): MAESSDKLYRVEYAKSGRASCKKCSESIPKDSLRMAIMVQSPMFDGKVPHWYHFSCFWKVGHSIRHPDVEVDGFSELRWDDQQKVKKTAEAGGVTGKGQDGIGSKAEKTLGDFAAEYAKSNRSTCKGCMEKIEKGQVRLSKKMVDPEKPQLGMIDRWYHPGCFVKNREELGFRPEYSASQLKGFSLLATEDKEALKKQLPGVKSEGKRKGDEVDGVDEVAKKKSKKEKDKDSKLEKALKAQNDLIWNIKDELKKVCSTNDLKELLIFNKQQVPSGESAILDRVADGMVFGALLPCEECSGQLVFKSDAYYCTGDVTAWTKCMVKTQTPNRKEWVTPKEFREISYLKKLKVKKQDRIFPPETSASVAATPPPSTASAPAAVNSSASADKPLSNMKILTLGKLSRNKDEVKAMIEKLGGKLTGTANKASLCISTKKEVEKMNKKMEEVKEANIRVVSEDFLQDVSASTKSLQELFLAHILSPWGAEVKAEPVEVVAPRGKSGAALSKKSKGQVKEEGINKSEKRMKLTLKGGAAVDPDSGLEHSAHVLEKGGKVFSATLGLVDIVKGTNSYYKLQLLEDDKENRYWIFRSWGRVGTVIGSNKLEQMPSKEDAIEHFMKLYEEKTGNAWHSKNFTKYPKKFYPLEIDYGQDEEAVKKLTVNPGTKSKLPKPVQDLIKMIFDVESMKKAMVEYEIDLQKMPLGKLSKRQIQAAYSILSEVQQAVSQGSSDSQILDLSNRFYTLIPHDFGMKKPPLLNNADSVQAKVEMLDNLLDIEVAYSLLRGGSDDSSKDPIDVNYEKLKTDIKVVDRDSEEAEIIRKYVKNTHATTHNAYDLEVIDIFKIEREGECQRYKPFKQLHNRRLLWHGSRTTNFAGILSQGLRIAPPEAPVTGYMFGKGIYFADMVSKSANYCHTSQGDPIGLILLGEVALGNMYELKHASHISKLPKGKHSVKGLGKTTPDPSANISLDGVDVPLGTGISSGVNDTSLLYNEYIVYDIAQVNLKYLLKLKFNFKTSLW
Sequence of Recombinant Human Poly(ADP-Ribose) Polymerase (PARP), PARP-1 (P09874 whole entry): as above

Structure (SMILES) | pKi [1, 2] | Cell EC50 ratio (PARP in C41 cells; [3]) | pKi [1, 5] | other results
CN1CCN(CCNC(=O)c2cc(Cc3n[nH]c(=O)c4c3CCCC4)ccc2F)CC1 [drawing 55] | 8.96 | 0.6 |  | 
O=C(CCN1CCCCC1)Nc1cc(Cc2n[nH]c(=O)c3c2CCCC3)ccc1F | 7.74 |  |  | Cell EC50 ratio (PARP in C41 cells): 5.6
CC(=O)N1CCN(C(=O)c2cccc(Cc3n[nH]c(=O)c4c3CCCC4)c2)CC1 [drawing 28] | 8.52 |  |  | Cell EC50 ratio (PARP in C41 cells): 6.1
O=C1CCCN1c1cc(Cc2n[nH]c(=O)c3c2CCCC3)ccc1F [drawing 7] |  |  |  | pKi [1, 4]: 8.92; Cell Ratio EC50 (PARP in C41 cells): 0.85
Cc1c(C(=O)Nc2cccc(Cc3n[nH]c(=O)c4c3CCCC4)c2)cnn1-c1ccccc1 [drawing 22] | 8.05 | 14.1 |  | 
O=C(c1cccc(Cc2n[nH]c(=O)c3c2CCCC3)c1)N1CCN(c2ccccc2Cl)CC1 [drawing 36] | 8.00 | 15 |  | 
CC(=O)N1CCN(C(=O)c2cc(Cc3n[nH]c(=O)c4c3CCCC4)ccc2F)CC1 [drawing 29] | 10.00 | 2.3 |  | 
O=C1CCN1c1cc(Cc2n[nH]c(=O)c3c2CCCC3)ccc1F |  |  |  | pKi [1, 4]: 8.22; Cell Ratio EC50 (PARP in C41 cells; Table 2, C41 cells, ratio to comparator EC50): 16.4
O=C(c1cc(Cc2n[nH]c(=O)c3c2CCCC3)ccc1F)N1CCN(c2ccccc2Cl)CC1 [drawing 37] | 8.30 | 6 |  | 
O=C(CCCC(=O)Nc1cc(Cc2n[nH]c(=O)c3c2CCCC3)ccc1F)Nc1ccccc1 [drawing 21] | 9.22 | 0.34 |  | 
CN(C)CCN(C)C(=O)c1cccc(Cc2n[nH]c(=O)c3c2CCCC3)c1 | 7.89 | 3 |  | 
O=C(Nc1cccc(Cc2n[nH]c(=O)c3c2CCCC3)c1)C1CNC1 [drawing 12] | 8.20 |  |  | Cell EC50 ratio (PARP in C41 cells): 246
CCN1CCN(C(=O)c2cccc(Cc3n[nH]c(=O)c4c3CCCC4)c2)CC1 [drawing 30] | 8.00 | 1.8 |  | 
NC(=O)C1CCCN(C(=O)c2cc(Cc3n[nH]c(=O)c4c3CCCC4)ccc2F)C1 (stereo not drawn) [drawing 45] | 8.52 | 28 |  | 
CCN(CC)C(=O)C1CCCN(C(=O)c2cc(Cc3n[nH]c(=O)c4c3CCCC4)ccc2F)C1 (stereo not drawn) [drawing 51] | 8.22 | 17 |  | 
CN1CCCN(C(=O)c2cccc(Cc3n[nH]c(=O)c4c3CCCC4)c2)CC1 [drawing 42] | 8.00 | 3.8 |  | 
O=C(c1cc(Cc2n[nH]c(=O)c3c2CCCC3)ccc1F)N1CCC(O)CC1 [drawing 47] | 8.89 | 2 |  | 
O=C(c1cccc(Cc2n[nH]c(=O)c3c2CCCC3)c1)N1CCN(c2ncccn2)CC1 [drawing 26] | 9.10 | 0.93 |  | 
O=C(c1cc(Cc2n[nH]c(=O)c3c2CCCC3)ccc1F)N1CCN(c2ccc(F)cc2)CC1 [drawing 41] | 8.40 |  |  | Cell EC50 ratio (PARP in C41 cells): 0.8
COc1ccc(C(=O)CCC(=O)Nc2cccc(Cc3n[nH]c(=O)c4c3CCCC4)c2)cc1 [drawing 14] | 8.72 | 20.9 |  | 
CN(C)CCN(C)C(=O)c1cc(Cc2n[nH]c(=O)c3c2CCCC3)ccc1F [drawing 53] | 8.44 | 0.7 |  | 
O=C(c1cccc(Cc2n[nH]c(=O)c3c2CCCC3)c1)N1CCN(c2ccc(F)cc2)CC1 [drawing 40] | 8.22 | 2.2 |  | 
O=C1CCC(=O)N1c1cc(Cc2n[nH]c(=O)c3c2CCCC3)ccc1F | 8.96 | 0.19 |  | 
O=C(c1cccc(Cc2n[nH]c(=O)c3c2CCCC3)c1)N1CCN(c2ccccn2)CC1 [drawing 32] | 8.52 | 1.9 |  | 
NC(=O)C1CCN(C(=O)c2cc(Cc3n[nH]c(=O)c4c3CCCC4)ccc2F)CC1 [drawing 49] | 8.57 | 25 |  | 
CCN1CCN(C(=O)c2cc(Cc3n[nH]c(=O)c4c3CCCC4)ccc2F)CC1 [drawing 31] | 8.74 | 0.4 |  | 
NCC(=O)Nc1cccc(Cc2n[nH]c(=O)c3c2CCCC3)c1 [drawing 10] | 7.92 | 22.5 |  | 

Structure (SMILES) | pKi [1, 2] | Cell EC50 ratio (PARP in C41 cells; [3]) | pKi [1, 5] | other results
O=C(Nc1cc(Cc2n[nH]c(=O)c3c2CCCC3)ccc1F)C1CNC1 | 9.15 |  |  | Cell EC50 ratio (PARP in C41 cells): 34.4
Cc1c(C(=O)Nc2cc(Cc3n[nH]c(=O)c4c3CCCC4)ccc2F)cnn1-c1ccccc1 [drawing 23] | 7.80 | 17.6 |  | 
O=C1CCC(=O)N1c1cccc(Cc2n[nH]c(=O)c3c2CCCC3)c1 | 8.70 | 1.7 |  | 
CN1CCN(CCNC(=O)c2cccc(Cc3n[nH]c(=O)c4c3CCCC4)c2)CC1 [drawing 54] | 7.62 | 31 |  | 
O=C(CCCC(=O)Nc1cccc(Cc2n[nH]c(=O)c3c2CCCC3)c1)Nc1ccccc1 [drawing 20] | 8.49 | 3.2 |  | 
O=C1CCCN1c1cc(Cc2n[nH]c(=O)c3c2CCCC3)ccc1F [drawing 17] | 8.92 |  |  | Cell EC50 ratio (PARP in C41 cells): 0.85
O=C(c1cccc(Cc2n[nH]c(=O)c3c2CCCC3)c1)N1CCC(O)CC1 [drawing 46] | 8.30 | 13 |  | 
O=C(c1cc(Cc2n[nH]c(=O)c3c2CCCC3)ccc1F)N1CCN(c2ncccn2)CC1 [drawing 27] | 9.15 | 0.3 |  | 
O=C(c1cc(Cc2n[nH]c(=O)c3c2CCCC3)ccc1F)N1CCN(c2ccccn2)CC1 [drawing 33] | 8.70 | 0.4 |  | 
NC(=O)C1CCN(C(=O)c2cccc(Cc3n[nH]c(=O)c4c3CCCC4)c2)CC1 [drawing 48] | 8.30 | 215 |  | 
O=C(CCC(=O)c1ccccc1)Nc1cccc(CCc2n[nH]c(=O)c3c2CCCC3)c1 [Example 294, 4-oxo-N-(3-(2-(4-oxo-3,4,5,6,7,8-hexahydrophthalazin-1-yl)ethyl)phenyl)-4-phenylbutanamide] |  |  | 6.69 | 
O=C(NCCN1CCCCC1)c1cccc(Cc2n[nH]c(=O)c3c2CCCC3)c1 [Example 64, 3-((4-oxo-3,4,5,6,7,8-hexahydrophthalazin-1-yl)methyl)-N-(2-piperidin-1-ylethyl)benzamide] |  |  | 7.40 | 
O=C(c1cncnc1)N1CCCN(C(=O)c2cc(Cc3n[nH]c(=O)c4c3NCCC4)ccc2F)CC1 [Example 685, 8-(4-fluoro-3-{[4-(pyrimidin-5-ylcarbonyl)-1,4-diazepan-1-yl]carbonyl}benzyl)-2,3,4,6-tetrahydropyrido[2,3-d]pyridazin-5(1H)-one] |  |  | 8.66 | 
O=C(c1cc(Cc2n[nH]c(=O)c3c2CCCC3)ccc1F)N1CCN(C(=O)N2CCCCC2)CC1 [Example 495, 4-(4-fluoro-3-{[4-(piperidin-1-ylcarbonyl)piperazin-1-yl]carbonyl}benzyl)-5,6,7,8-tetrahydrophthalazin-1(2H)-one] |  |  | 8.72 | 
O=C(c1cc(Cc2n[nH]c(=O)c3c2CCCC3)ccc1F)N1CCN(S(=O)(=O)c2ccccc2)CC1 [Example 574, 4-(4-fluoro-3-{[4-(phenylsulfonyl)piperazin-1-yl]carbonyl}benzyl)-5,6,7,8-tetrahydrophthalazin-1(2H)-one] |  |  | 8.89 | 
CC(C)C(=O)N1CCN(C(=O)c2cc(Cc3n[nH]c(=O)c4c3NCCC4)ccc2F)CC1 [Example 565, 8-{4-fluoro-3-[(4-isobutyrylpiperazin-1-yl)carbonyl]benzyl}-2,3,4,6-tetrahydropyrido[2,3-d]pyridazin-5(1H)-one] |  |  | 8.85 | 
O=C(Nc1ccc(N2CCCCC2)cc1)c1cccc(Cc2n[nH]c(=O)c3c2CCCC3)c1 [Example 362, 3-((4-oxo-3,4,5,6,7,8-hexahydrophthalazin-1-yl)methyl)-N-(4-piperidin-1-ylphenyl)benzamide] |  |  | 6.73 | 
O=C(Nc1ccc(Cc2n[nH]c(=O)c3c2CCCC3)cn1)c1ccncc1 [Example 107, N-(5-((4-oxo-3,4,5,6,7,8-hexahydrophthalazin-1-yl)methyl)pyridin-2-yl)isonicotinamide] |  |  | 6.67 | 
CC(C)c1ccccc1NC(=O)c1cccc(Cc2n[nH]c(=O)c3c2CCCC3)c1 [Example 333, N-(2-isopropylphenyl)-3-((4-oxo-3,4,5,6,7,8-hexahydrophthalazin-1-yl)methyl)benzamide] |  |  | 6.05 | 
O=C(Nc1ccc(-c2ccccc2)cc1)c1cccc(Cc2n[nH]c(=O)c3c2CCCC3)c1 [Example 337, N-1,1′-biphenyl-4-yl-3-((4-oxo-3,4,5,6,7,8-hexahydrophthalazin-1-yl)methyl)benzamide] |  |  | 6.91 | 
O=C1CNC(=O)N1c1cc(Cc2n[nH]c(=O)c3c2CCCC3)ccc1F [Example 630, 3-{2-fluoro-5-[(4-oxo-3,4,5,6,7,8-hexahydrophthalazin-1-yl)methyl]phenyl}imidazolidine-2,4-dione] |  |  | 9.15 | 
COc1ccc(C)cc1NC(=O)c1cccc(Cc2n[nH]c(=O)c3c2CCCC3)c1 [Example 351, N-(2-methoxy-5-methylphenyl)-3-((4-oxo-3,4,5,6,7,8-hexahydrophthalazin-1-yl)methyl)benzamide] |  |  | 6.56 | 
NC(=O)C1CCCN(C(=O)c2cccc(Cc3n[nH]c(=O)c4c3CCCC4)c2)C1 (stereo not drawn) [Example 429, 1-(3-((4-oxo-3,4,5,6,7,8-hexahydrophthalazin-1-yl)methyl)benzoyl)piperidine-3-carboxamide] |  |  | 7.72 | 
O=C(c1ccccc1)N1CCN(C(=O)c2cc(Cc3n[nH]c(=O)c4c3CCCC4)ccc2F)CC1 [Example 525, 4-{3-[(4-benzoylpiperazin-1-yl)carbonyl]-4-fluorobenzyl}-5,6,7,8-tetrahydrophthalazin-1(2H)-one] |  |  | 8.80 | 
COc1ccc(C(C)(C)C)cc1NC(=O)c1cccc(Cc2n[nH]c(=O)c3c2CCCC3)c1 [Example 356, N-(5-tert-butyl-2-methoxyphenyl)-3-((4-oxo-3,4,5,6,7,8-hexahydrophthalazin-1-yl)methyl)benzamide] |  |  | 6.74 | 
O=C1CCCN1c1ccc(Cc2n[nH]c(=O)c3c2CCCC3)cn1 [Example 104, 4-((6-(2-oxopyrrolidin-1-yl)pyridin-3-yl)methyl)-5,6,7,8-tetrahydrophthalazin-1(2H)-one] |  |  | 5.91 | 

Reference: patent publication US9283222B2 (priority 2006, dated 2016)
